The pIC50 is −log10 of the IC50, conventionally taken in molar units.

The test system of the data set is TGF-β signaling (PAI-1 promoter-luciferase in HepG2 cells). In words: Assay 1: PAI-1 promoter luciferase reporter assay in HepG2 cells exposed to TGF-β. (In general: Reporter assays use an easily measured gene product as a stand-in for the process of interest.)

pIC50: −log10 of the molar value. Where two headings read alike, the source gives them in different places.

Method: The assay was performed in HepG2 cells stably transfected with the PAI-1 promoter (known to be a strong TGF-β responsive promoter) linked to a luciferase (firefly) reporter gene. The compounds were selected on their ability to inhibit luciferase activity in cells exposed to TGF-β. In addition cells were transfected with a second luciferase (Renilla) gene which was not driven by a TGF-β responsive promoter and was used as a toxicity control.
(96 well) microplates are seeded, using a multidrop apparatus, with the stably transfected cell line at a concentration of 35000 cells per well in 200 μl of serum-containing medium. These plates are placed in a cell incubator.
18 to 24 hours later (Day 2), cell-incubation procedure is launched. Cells are incubated with TGF-β and a candidate compound at concentrations in the range 50 nM to 10 μM (final concentration of DMSO 1%). The final concentration of TGF-β (rhTGFβ-1) used in the test is 1 ng/mL. […] The final volume of the test reaction is 150 μl. Each well contains only one candidate compound and its effect on the PAI-1 promoter is monitored.
Columns 11 and 12 are employed as controls. Column 11 contains 8 wells in which the cells are incubated in the presence of TGF-β, without a candidate compound. Column 11 is used to determine the ‘reference TGF-β induced firefly luciferase value’ against which values measured in the test wells (to quantify inhibitory activity) may be compared. In wells A12 to D12, cells are grown in medium without TGF-β. […]
12 to 18 hours later (day 3), the luciferase quantification procedure is launched. […] Following agitation (15 to 30 mins), luciferase activities of the plates are read in a dual-injector luminometer (BMG lumistar). For this purpose, 50 μl of luciferase assay reagent and 50 μl of ‘Stop & Glo’ buffer are injected sequentially to quantify the activities of both luciferases. […] For each of the compounds tested, a concentration response curve is constructed from which an IC50 value can be determined graphically.

Consider `c1ccc(-c2n[nH]cc2-c2ccc3ncccc3n2)nc1` [Example 1, 2-(3-Pyridin-2-yl-1H-pyrazol-4-yl)-1,5-naphthyridine], for which, where the note is “Homo sapiens, HepG2, read-out: IC50 value in Assay 1 (inhibition of TGF-β induced firefly luciferase activity)”, the pIC50 is ~7.30.

Regarding `O=C1C=CCC1` [CPO, Cyclopentenone, reference compound], the “firefly and renilla luciferase activities relative to those obtained in column 11 (TGF-β only)” value (500 μM CPO in presence of TGF-β, toxicity control wells E12 to H12) is recorded as “around 50%”.

On to `Cc1cccc(-c2n[nH]cc2-c2ccc3ncccc3n2)n1` [Example 2], for which the pIC50 (read-out: IC50 value in Assay 1 (inhibition of TGF-β induced firefly luciferase activity), HepG2 cells stably transfected with PAI-1 promoter-luciferase, rhTGFβ-1 1 ng/mL, 1% DMSO) was ~7.30.
